Values after ≈ are worked out from the molar mass of the structure shown.
Assays:
[1] = tested on: Citrobacter freundii IFO 12681; test: MIC by agar dilution method, Citrobacter freundii IFO 12681; format: cell-based; details: IFO12681, Trypticase soy agar, about 10^8 CFU/ml, 18 hours at 37° C., read-out: MIC (minimal inhibitory concentration)
Protocol: (§1) Several examples of the compound (I) as obtained in Examples were tested for MIC (mcg/ml) by the following method.
(§2) The MIC of each test compound was determined by the agar dilution method. Thus, 1.0 ml of each aqueous serial dilution of the test compound was poured into a petri dish and then […] of Trypticase soy agar was poured into the dish followed by intimate mixing. The mixed agar plate was smeared with the suspension of a test organism (about 10^8 CFU/ml).
(3) Citrobacter freundii IFO 12681

Klebsiella pneumoniae DT = test: MIC by agar dilution method, Klebsiella pneumoniae DT; format: cell-based; details: Trypticase soy agar, about 10^8 CFU/ml, 18 hours at 37° C., read-out: MIC (minimal inhibitory concentration)
Protocol: as §1, §2
(4) Klebsiella pneumoniae DT

Escherichia coli 0-111 = test: MIC by agar dilution method, Escherichia coli 0-111; format: cell-based; details: 0111, Trypticase soy agar, about 10^8 CFU/ml, 18 hours at 37° C., read-out: MIC (minimal inhibitory concentration)
Protocol: as §1, §2
(2) Escherichia coli 0-111

[2] = tested on: Staphylococcus aureus FDA 209P; test: MIC by agar dilution method, Staphylococcus aureus FDA 209P; format: cell-based; details: FDA209P, Trypticase soy agar, about 10^8 CFU/ml, 18 hours at 37° C., read-out: MIC (minimal inhibitory concentration)
Protocol: as §1, §2
(1) Staphylococcus aureus FDA 209P

[3] = stability against a mouse kidney homogenate; format: in vitro ADME; details: 0.05M phosphate buffer (pH 6.9), 30° C., test compound solution 1 mg/ml mixed 1:1, read-out: Half life (T1/2)
Protocol: Several examples of the objective compound (I) as obtained in Examples were tested for stability against a mouse Kidney homogenate by the following method.
A kidney homogenate was prepared by grinding down 50 g of the mouse kidney in 200 ml of cooled 0.05M phosphate buffer (pH 6.9) and stored at -20° C. A 200 μl portion of this mouse kidney homogenate and 200 μl of an aqueous solution of the test compound (1 mg/ml) were intimately mixed and kept at 30° C. At 10-minute intervals, a 25 μl portion of the mixture was taken and added to 25 μl of ice bath-cooled methanol to thereby terminate the reaction between renal enzymes and the test compound. The amount of the remaining test compound was determined by measuring the inhibitory action against β-lactamaseproduced by Proteus vulgaris GN4413 or Enterobacter cloacae TN1282 by the method described in Journal of Antibiotics, 34, 212-217 (1981).

## CCS(=O)(=O)CC(O)C1C(=O)N2C(C(=O)O)=C(SCCNC(C)=O)CC12 (stereo not drawn) [15 (b)]
[1]
  MIC: 3.13 µg/mL (≈ 7.7 µM)
Klebsiella pneumoniae DT
  MIC: 3.13 µg/mL (≈ 7.7 µM)
Escherichia coli 0-111
  MIC: 0.2 µg/mL (≈ 0.492 µM)
[2]
  MIC: 6.25 µg/mL (≈ 15.4 µM)
[3]
  half-life: > 2 h

## O=C(O)C1=C(Sc2ncccn2)C[C@@H]2[C@H](C3(O)CCS(=O)(=O)C3)C(=O)N12 (stereo partly drawn) [2 (b), sodium 5,6-cis-3-(2-pyrimidinylthio)-6-(1-hydroxy-3-thiacyclopentyl-3,3-dioxido)-7-oxo-1-azabicyclo[3.2.0]hept-2-ene-2-carboxylate]
[1]
  MIC: 6.25 µg/mL
Klebsiella pneumoniae DT
  MIC: 6.25 µg/mL
Escherichia coli 0-111
  MIC: 3.13 µg/mL
[2]
  MIC: 0.78 µg/mL
[3]
  half-life: > 2 h

## CC(=O)NCCSC1=C(C(=O)O)N2C(=O)C(C(O)CS(=O)(=O)c3ccccc3)C2C1 (stereo not drawn) [20 (b)]
[1]
  MIC: 1.56 µg/mL (≈ 3.43 µM)
Klebsiella pneumoniae DT
  MIC: 3.13 µg/mL (≈ 6.89 µM)
Escherichia coli 0-111
  MIC: 0.39 µg/mL (≈ 0.858 µM)
[2]
  MIC: 1.59 µg/mL (≈ 3.5 µM)
[3]
  half-life: > 2 h

## CC(=O)NCCSC1=C(C(=O)O)N2C(=O)[C@@H](C(O)CS(C)(=O)=O)[C@H]2C1 (stereo partly drawn) [12 (b), sodium 5,6-cis-3-(2-acetamidoethylthio)-6-(1-hydroxy-2-methylsulfonylethyl)-7-oxo-1-azabicyclo[3.2.0]hept-2-ene-2-carboxylate]
[1]
  MIC: 3.13 µg/mL
Klebsiella pneumoniae DT
  MIC: 1.56 µg/mL
Escherichia coli 0-111
  MIC: 0.39 µg/mL
[2]
  MIC: 1.56 µg/mL
[3]
  half-life: > 2 h

## CC(=O)N/C=C/SC1=C(C(=O)O)N2C(=O)[C@@H](C3(O)CCS(=O)(=O)C3)[C@H]2C1 (stereo partly drawn) [13 (b), sodium 5,6-cis-3-[(E)-2-acetamidovinylthio]-6-(1-hydroxy-3-thiacyclopentyl-3,3-dioxido)-7-oxo-1-azabicyclo[3.2.0]hept-2-ene-2-carboxylate]
[1]
  MIC: 1.56 µg/mL
Klebsiella pneumoniae DT
  MIC: 0.78 µg/mL
Escherichia coli 0-111
  MIC: 0.39 µg/mL
[2]
  MIC: 1.56 µg/mL
[3]
  half-life: > 2 h

## CC(=O)NCCSC1=C(C(=O)O)N2C(=O)[C@@H](C3(O)CCS(=O)(=O)C3)[C@H]2C1 (stereo partly drawn) [Example 1 (c), Sodium 5,6-cis-3-(2-acetamidoethylthio)-6-(1-hydroxy-3-thiacyclopentyl-3,3-dioxido)-7-oxo-1-azabicyclo-[3.2.0]hept-2-ene-2-carboxylate]
[1]
  MIC: 3.13 µg/mL
Klebsiella pneumoniae DT
  MIC: 3.13 µg/mL
Escherichia coli 0-111
  MIC: 0.39 µg/mL
[2]
  MIC: 3.13 µg/mL
[3]
  half-life: > 2 h
